In patent US8153359B2, “Toxicity assay based on human blastocyst-derived stem cells and progenitor cells” (Cellartis AB, priority 2006, dated 2012):

Assays:
hBS MPs [1] = assay: Cytotoxicity test, viability by ATP content, hBS MPs (progenitor cells); format: cell-based, human; conditions: relative to hBS cells = 1
hBS MPs [2] = assay: Cytotoxicity test, viability by Resazurin reduction, hBS MPs (progenitor cells); format: cell-based, human; conditions: relative to hBS cells = 1
[3] = system: human foreskin fibroblasts (hFFs); assay: Cytotoxicity test, viability by ATP content, hFFs; format: cell-based; conditions: relative to hBS cells = 1
hBS cells [4] = assay: Cytotoxicity test, viability by ATP content (CellTiterGlo), hBS cells; format: cell-based, human; conditions: hBS cells set to 1
[5] = system: human foreskin fibroblasts (hFFs); assay: Cytotoxicity test, viability by Resazurin reduction, hFFs; format: cell-based; conditions: relative to hBS cells = 1
hBS cells [6] = assay: Cytotoxicity test, viability by Resazurin reduction, hBS cells; format: cell-based, human; conditions: hBS cells set to 1
[7] = system: hBS cells, hBS MPs and hFFs; assay: Cytotoxicity test, comparison over all cell types (hBS cells, progenitor cells, hFF); conditions: FIG. 3

| Compound | Ratio between the IC50 values measured using the ATP assay, Progenitors (hBS MPs [1]) | Ratio between the IC50 values measured using the Rezasurin assay, Progenitors (hBS MPs [2]) | Ratio between the IC50 values measured using the ATP assay, hFF [3] | Ratio between the IC50 values measured using the ATP assay, hBS cells (hBS cells [4]) | Ratio between the IC50 values measured using the Rezasurin assay, hFF [5] | Ratio between the IC50 values measured using the Rezasurin assay, hBS cells (hBS cells [6]) | toxic reaction [7] |
| --- | --- | --- | --- | --- | --- | --- | --- |
| O=c1[nH]cc(F)c(=O)[nH]1 [5-FU, 5-Fluorouracil] | 2 | 1 | 7 | 1 | 2.5 | 1 | – |
| CC1=C(/C=C/C(C)=C/C=C/C(C)=C\C(=O)O)C(C)(C)CCC1 [13CRA, 13-cis retinoic acid] | 0.000025 | 0.000001 | >6 | 1 | >7 | 1 | – |
| CC1=C(/C=C/C(C)=C/C=C/C(C)=C/C(=O)O)C(C)(C)CCC1 [ATRA, all-trans retinoic acid] | 0.0001 | 0.0005 | >4 | 1 | >6 | 1 | – |
| O=C1NS(=O)(=O)c2ccccc21.[Na] [Saccharin, Sodium Saccharin] | – | – | – | – | – | – | no toxic reaction |
